The subject of series [1] is AGS cells. Briefly: Cellular reduced glutathione (GSH) content of AGS cells. The class given is cell-based, human. The conditions noted are these: 4 h; for GSH: post-confluent AGS, control 13.6 ± 0.7. On the procedure: Untreated cells were used as controls. […] After incubation, the GSH content was determined using a colorimetric kit (BioAssays Systems, Hayward, CA, USA). Results are expressed as nanomol of soluble reduced sulfhydryls/10^6 cells.

Series [2] is described as follows: Cytotoxicity, neutral red uptake assay, MRC-5. As to conditions: human, MRC-5 lung fibroblasts, confluent monolayer, confluent MRC-5, 24 h, read-out: IC50 ± SD, cytotoxicity MRC-5. The series is classed as cell-based. The protocol: (§1) Human lung fibroblasts MRC-5 (ATCC CCL-171) were grown in minimum essential Eagle medium (MEM) with Earles’s salts and 2 mM L-glutamine (Sigma-Aldrich Co.). Human epithelial gastric cells AGS (ATCC CRL-1739) were grown in Ham F-12 medium containing 1 mM L-glutamine. Both media were supplemented with 1.5 g/L sodium bicarbonate (Sigma-Aldrich Co.), 10% heat-inactivated fetal bovine serum (FBS), 100 IU/mL penicillin and 100 µg/mL streptomycin.Both cell lines were grown as monolayers in a humidified incubator with 5% CO2 in air at 37 °C. Culture media, antibiotics and FBS were obtained from Invitrogen Corp.
(§2) Cytotoxicity values were required as a reference to determine the working concentrations in the subsequent experiments. Briefly, confluent cultures of MRC-5 and AGS cells were treated during 24 h with medium containing the compounds at concentrations ranging from 0 up to 1,000 µM. The products were first dissolved in DMSO (1% final concentration) and then in the corresponding culture medium supplemented with 2% FBS. Untreated cells were used as controls. Cell viability was determined at the end of the incubation by means of the neutral red uptake (NRU) assay. Lansoprazole (Sigma-Aldrich Co., min. 98% by TLC) was used as reference compound.

Series [3] is described as follows: Cytotoxicity, neutral red uptake assay, AGS. The series is classed as cell-based. The conditions noted are these: human, AGS gastric epithelial cells, confluent monolayer, read-out: IC50 ± SD, cytotoxicity AGS. On the procedure:
as §1, §2

The subject of series [4] is human erythrocyte membranes. The series is described as follows: Inhibition of lipoperoxidation in erythrocyte membranes. The class given is biochemical.
The subject of series [5] is AGS cells. The series is described as follows: Prostaglandin E2 (PGE2) content of AGS cells. The series is classed as cell-based, human. The conditions noted are these: 1 h; for PGE2: post-confluent AGS, control 52 ± 5. The protocol:
One day after confluence, AGS cells were treated for 1 h with the compounds at 1/2 and 1/4 of the respective IC50 values. A control with medium only was included. Indomethacin (100 μM) was used as standard inhibitor of prostaglandin synthesis (Sigma-Aldrich Co., min. 99% by TLC). After incubation, PGE2 content was determined by means of a specific enzyme immunoassay kit (R & D Systems KGE004B, Minneapolis, MN, USA) and values were calculated according to the manufacturer instructions. Results are expressed as pg/well.

In series [6] the test system is HCl-EtOH-induced gastric lesions. Further details: method as in PMID 21996716. As to conditions: mice, orally, single dose of 5 mg/kg; cited from earlier work.
Series [7] has as its system AGS cells. Briefly: Sodium taurocholate (NaT)-induced damage to AGS cells. The class given is cell-based, human. The conditions noted are these: 60 min pre-treatment, then 10 mM NaT 30 min. On the procedure: The effect of sodium taurocholate (NaT) on cell viability was determined according to [15]. […] Then, 10 mM NaT was added to all wells for 30 min. Untreated cells were used as controls. […] After incubation, the NRU assay was carried out.

For series [8], the system named is human erythrocyte membranes. The series is described as follows: Inhibition of lipoperoxidation in erythrocyte membranes. The class given is biochemical. As to conditions: at 100 µg/mL. The protocol: The inhibition of lipid peroxidation was determined using human erythrocyte membranes. The compounds were tested at 100 µg/mL.

The structures appear in SMILES notation.

One may read the IC50 as the concentration at which inhibition is half-maximal. Consider `C=C1CCC2[C@](C)(CCC[C@]2(C)C(=O)OC)[C@H]1CC[C@@H](C)CC(=O)OC1=C(CC=C(C)C)C(=O)c2ccccc2C1=O` (some centres unmarked) [Compound 8, Lapachoyl junicedrate methyl ester], for which the activation at 125 µM with AGS cells [1] (Homo sapiens, AGS, 125 µM, read-out: increase of GSH content compared to untreated controls) came out at 19%. Also, in the series with AGS cells [1] (Homo sapiens, AGS, 250 µM, read-out: increase of GSH content compared to untreated controls), the activation at 250 µM was found to be 24%. Further, the GSH result in the series on AGS cells [1] (125 µM) was “* 16.2 ± 0.6 nmol/10^6 cells”; in the series on AGS cells [1] (250 µM) it was “* 16.8 ± 0.9 nmol/10^6 cells”. Also, the IC50 at 24 h in series [2] and in series [3] was above 1000 µM in each case. For the same molecule, the “IC50, inhibition of the lipoperoxidation” value in series [4] is recorded as “IC50 81.4 ± 11.0 µg/mL”. Further, the fold induction at 250 µM in the series on AGS cells [5] (Homo sapiens, AGS, 250 µM, read-out: increase in PGE2 content) came out at 5.2. The fold induction at 500 µM in the series on AGS cells [5] (Homo sapiens, AGS, 500 µM, read-out: increase in PGE2 content) turned out to be 15.2. The PGE2 with AGS cells [5] (250 µM) came to 272 ± 30 pg/mL; with AGS cells [5] (500 µM) it was 787 ± 56 pg/mL. In addition, in series [6], the “gastroprotective effect in vivo” value is given as “active”.
For `C=C1CCC2[C@](C)(CCC[C@]2(C)C(=O)O)[C@H]1CC[C@@H](C)CC(=O)OC1=C(CCC(C)C)C(=O)c2ccccc2C1=O` (some centres unmarked) [Compound 9, Dihydroprenyl lapachol junicedrate], the activation at 6 µM in the series with AGS cells [1] (Homo sapiens, AGS, 6 µM, read-out: increase of GSH content compared to untreated controls) stood at 15%. Also, in the series with AGS cells [1] (Homo sapiens, AGS, 12 µM, read-out: increase of GSH content compared to untreated controls), the activation at 12 µM turned out to be 16%. In addition, the GSH entry is “* 15.6 ± 0.6 nmol/10^6 cells” in the series with AGS cells [1] (6 µM) and “* 15.8 ± 0.6 nmol/10^6 cells” with AGS cells [1] (12 µM). The IC50 at 24 h is 449 ± 27 µM in series [2] and 49 ± 10 µM in series [3]. Moreover, the “IC50, inhibition of the lipoperoxidation” value in series [4] was “IC50 40.1 ± 5.3 µg/mL”. Further, in the series on AGS cells [5] (Homo sapiens, AGS, 12.5 µM, read-out: increase in PGE2 content), the fold induction at 12.5 µM stood at 5.9. This molecule also gave a PGE2 with AGS cells [5] (12.5 µM) of 309 ± 29 pg/mL. Further, the “gastroprotective effect in vivo” value in series [6] is “significant activity”.
As to `C=C1CCC2[C@](C)(CCC[C@]2(C)C(=O)OC)[C@H]1CC[C@@H](C)CC(=O)OC1=C(CCC(C)C)C(=O)c2ccccc2C1=O` (some centres unmarked) [Compound 10, Dihydroprenyl lapachoyl junicedrate methyl ester], the figures for the GSH with AGS cells [1] (83 µM) and with AGS cells [1] (165 µM) were 13.4 ± 0.7 nmol/10^6 cells and 13.0 ± 0.7 nmol/10^6 cells, respectively. Also, the figures for the IC50 at 24 h in series [2] and in series [3] were above 1000 µM and 659 ± 42 µM, respectively. For the same molecule, the “IC50, inhibition of the lipoperoxidation” value in series [4] is given as “IC50 99.4 ± 9.1 µg/mL”. The fold induction at 162 µM with AGS cells [5] (Homo sapiens, AGS, 162 µM, read-out: increase in PGE2 content) amounted to 5.9. In addition, in the series on AGS cells [5] (Homo sapiens, AGS, 323 µM, read-out: increase in PGE2 content), the fold induction at 323 µM came to 8.9. The PGE2 is 306 ± 32 pg/mL in the series with AGS cells [5] (162 µM) and 465 ± 39 pg/mL with AGS cells [5] (323 µM). Besides, in series [6], the “gastroprotective effect in vivo” value is reported as “significant activity”.
In the case of `COC(=O)[C@@]1(C)CCC[C@]2(C)C(CC[C@@H](C)CC(=O)OC3=C(CC=C(C)C)C(=O)c4ccccc4C3=O)=C(C)CCC12` (some centres unmarked) [Compound 20, Lapachoyl Δ8(9) junicedrate methyl ester], in the series with AGS cells [1] (Homo sapiens, AGS, 40 µM, read-out: increase of GSH content compared to untreated controls), the activation at 40 µM came to 19%. Further, the activation at 80 µM in the series on AGS cells [1] (Homo sapiens, AGS, 80 µM, read-out: increase of GSH content compared to untreated controls) is 13%. Besides, the GSH result in the series on AGS cells [1] (40 µM) is given as “* 16.2 ± 1.0 nmol/10^6 cells”; in the series with AGS cells [1] (80 µM) it was “* 15.4 ± 1.3 nmol/10^6 cells”. Besides, the IC50 at 24 h in series [2] came to 483 ± 31 µM; in series [3], 321 ± 24 µM. The “IC50, inhibition of the lipoperoxidation” value in series [4] is listed as “IC50 58.1 ± 4.1 µg/mL”. Also, the “gastroprotective effect in vivo” value in series [6] is recorded as “active”.
Regarding `CC1=C(CC[C@@H](C)CC(=O)OC2=C(CCC(C)C)C(=O)c3ccccc3C2=O)[C@@]2(C)CCC[C@](C)(C(=O)O)C2CC1` (some centres unmarked) [Compound 21, Dihydroprenyl lapachoyl Δ8(9) junicedrate], in the series on AGS cells [1] (Homo sapiens, AGS, 70 µM, read-out: increase of GSH content compared to untreated controls), the activation at 70 µM was determined as 33%. The GSH with AGS cells [1] (35 µM) is given as 13.3 ± 0.7 nmol/10^6 cells; in the series with AGS cells [1] (70 µM), “* 18.1 ± 1.1 nmol/10^6 cells”. For the same molecule, the IC50 at 24 h was determined as 601 ± 26 µM in series [2] and 278 ± 14 µM in series [3]. The figures for the “reduction in cell viability, NaT-induced damage” value in the series on AGS cells [7] (35 µM), with AGS cells [7] (70 µM) and in the series with AGS cells [7] (139 µM) were 25%, 27% and 30%, respectively. The fold induction at 85 µM in the series with AGS cells [5] (Homo sapiens, AGS, 85 µM, read-out: increase in PGE2 content) is 3.1. The PGE2 in the series on AGS cells [5] (85 µM) worked out at 162 ± 18 pg/mL. For the same molecule, the “gastroprotective effect in vivo” value in series [6] was “significant activity”.
Consider `COC(=O)[C@@]1(C)CCC[C@]2(C)C(CC[C@@H](C)CC(=O)OC3=C(CCC(C)C)C(=O)c4ccccc4C3=O)=C(C)CCC12` (some centres unmarked) [Compound 22, Dihydroprenyl lapachoyl Δ8(9) junicedrate methyl ester], for which the results for the GSH in the series on AGS cells [1] (43 µM) and in the series with AGS cells [1] (85 µM) were 13.6 ± 0.9 nmol/10^6 cells and 14.2 ± 0.6 nmol/10^6 cells, respectively. Moreover, the IC50 at 24 h in series [2] is 848 ± 51 µM; in series [3] it was 340 ± 20 µM. The fold induction at 170 µM in the series with AGS cells [5] (Homo sapiens, AGS, 170 µM, read-out: increase in PGE2 content) came to 2.2. Moreover, in the series on AGS cells [5] (170 µM), the PGE2 worked out at 114 ± 11 pg/mL. Also, the “% Inhibition of the lipoperoxidation” value in series [8] was 46%. The “gastroprotective effect in vivo” value in series [6] is “significant activity”.

The values are drawn from publication PMC6270338, “Diterpenylquinone Hybrids: Synthesis and Assessment of Gastroprotective Mechanisms of Action in Human Cells” (Molecules, 2013).
